Measurements published in PubChem BioAssay (NCI).
“And” between values parts separate entries of the source, which are not always exact repeats. Identical values can stand only once.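 Protocol summary: plate cells (96-well), add compound at 5 concentrations, incubate 48 h, interpolate endpoints linearly. GI50 = concentration required for 50% inhibition of growth. TGI: concentration producing complete growth inhibition.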 *1 amine or outer side, *2 acyl side, *3 side chain or, on linkers, in order; H or OH if unused. Where a SMILES comes first, the peptide text is derived from it. [ ]: non-standard residue; d: D form. The star is where a group is joined. X11 = C/C=C/CC(C)C(O)[C@H](N[*:1])C(=O)[*:2]; Decanoyl = CCCCCCCCCC(=O)*; Leu(ol) = CC(C)C[C@H](N)CO; Iva = CC[C@](C)(N)C(=O)O; Aib = CC(C)(N)C(=O)O

System: MDA-MB-468 breast
Assay: NCI tumour cell line growth inhibition, 48 h

Row | Compound | GI50 | TGI
1 | Nc1n[nH]c2cccc(C#Cc3cccc(C(=O)Nc4ccc(CN5CCOCC5)c(C(F)(F)F)c4)c3)c12 | 2.87 µM | 9.72 µM
2 | CN1CC[C@@H](NC(=O)Nc2ccc(C#N)cc2)C[C@@H]1c1nc2ccccc2[nH]1 | 43.3 µM | > 100 µM
3 | COC[C@H]1Cn2cc(-c3nc(Nc4ccnn4C)ncc3C)nc2C(=O)N1Cc1ccc(F)c(F)c1 | 26.3 µM | > 100 µM
4 | O=C(/C(=C/c1ccc([N+](=O)[O-])cc1)SCc1ccccc1)c1ccc(Cl)cc1 | 2.25 µM | 5.83 µM
5 | O=C(Nc1ccc(Oc2ccc(Nc3nc4ccccc4s3)cc2)cc1)Nc1ccc(Cl)c(C(F)(F)F)c1 | 0.405 µM | 2.2 µM
6 | Nc1c(C(=O)Nc2cccc(C(F)(F)F)c2)sc2nc3c(cc12)CCCCC3 | 0.394 µM | 3.01 µM
7 | Cc1cc(C)cc(NC2=C(Cl)C(=O)c3nc(C)ccc3C2=O)c1 | 1.64 µM | 3.2 µM
8 | CCN1C(=O)N(c2ccccc2)C2NC(=S)N(/N=C/C=C/c3ccccc3OC)C21 (centres undefined) | 0.114 µM | 14.2 µM
9 | CC1(COc2ccc3c(c2)ncn3-c2ccc3cccc(N4CCC(N)CC4)c3n2)COC1 | 1.34 µM and 2 µM | 2.94 µM and 4.95 µM
10 | CC(C)[C@@H]1C=C2CC[C@H]3[C@](C)(CN)CCC[C@]3(C)[C@H]2CC1 | 13.2 µM | 28.2 µM
11 | C=C1C(=O)O[C@H]2[C@H]1CC/C(COC(=O)NCc1ccc(Cn3c(=O)sn(-c4ccc(OC)cc4)c3=O)cc1)=C\CC[C@@]1(C)O[C@@H]21 | 1.53 µM | 3.54 µM
12 | CN1CCN(Cc2ccc(NC(=O)c3cncc(C#Cc4cnc5ccc(N6CCSCC6)nn45)c3)cc2C(F)(F)F)CC1 | 0.146 µM | 0.302 µM
13 | CCCCCCCCCCCCCCCC[N+](C)(C)Cc1ccccc1 | 0.328 µM | 1.2 µM
14 | c1ccc(Sc2ncnc3ccccc23)cc1 | 2.98 µM | 12.3 µM
15 | COc1ccc(-c2cn[nH]c2-c2cc(OC)c(OC)c(OC)c2)cc1 | 0.0422 µM | 30.3 µM
16 | O=C(N/N=C/c1ccc[nH]1)c1[nH]c2ccc(Br)cc2c1-c1ccccc1 | 0.196 µM | 1.15 µM
17 | CCn1c(-c2nonc2N)nc2c(C#CC(C)(C)O)nc(OC[C@@H](N)c3ccccc3)cc21 | 4.06 µM | 7.68 µM
18 | COc1ccc([C@H]2[C@H](O)C(=O)N2c2cc(OC)c(OC)c(OC)c2)cc1O | < 0.01 µM | > 100 µM
19 | Clc1cccc(/C=N/Nc2nc(N/N=C/c3cccc(Cl)c3)nc(N3CCOCC3)n2)c1 | 1.65 µM | 4.28 µM
20 | Cc1nnc(NC(=O)c2nc(S(=O)(=O)Cc3ccc(F)cc3)ncc2Cl)s1 | 1.2 µM | 3.28 µM
21 | COc1ccc(/C=N/NC(=O)c2cccc3cc[nH]c23)cc1O | 3.35 µM | > 25.2 µM
22 | Cc1csc(-c2nnc(Nc3ccc(Oc4ncccc4-c4ccnc(N)n4)cc3)c3ccccc23)c1 | < 0.0115 µM | > 100 µM

Row | Compound | GI50 | TGI
23 | COc1ccc2nc3cc(Cl)ccc3c(NCCNCC(C)O)c2c1 (centres undefined) | 1.55 µM | 3.36 µM
24 | CN(C)c1cc(NN=C(c2ccc(O)cc2)c2ccc(O)cc2)c([N+](=O)[O-])cc1[N+](=O)[O-] | 10.1 µM | 22.6 µM
25 | Nc1n[nH]c2cc(F)c([C@@H]3Nc4ccc5[nH]ncc5c4[C@H]4C5CCC(C5)[C@@H]34)cc12 (some centres undefined) | 0.15 µM | 1.9 µM
26 | CCCCCCCCCCn1cc[n+](C)c1 | 0.481 µM | –
27 | O=C(CCCSc1nc(-c2ccccc2)cc(-c2ccccc2)n1)NO | 1.49 µM | 4.69 µM
28 | Nc1cc(NN=C(c2ccc(O)cc2)c2ccc(O)cc2)c([N+](=O)[O-])cc1[N+](=O)[O-] | 2.19 µM | 4.82 µM
29 | COc1ccc(CN2C(=O)/C(=C\c3cc(OC)c(OC)c(OC)c3)c3ccccc32)cc1 | 1.94 µM | 5.61 µM
30 | Nc1ccccc1SC(CC(=O)c1ccccc1)c1cccc([N+](=O)[O-])c1 (centres undefined) | 15.4 µM | 31.3 µM
31 | COc1ccc(CCN=C2NC(=O)/C(=C/c3ccc4ncccc4c3)S2)cc1 | > 18.7 µM | > 25 µM
32 | CCN(C(=O)N1CCN(c2cc3c(cc2F)c(=O)c(C(=O)O)cn3C2CC2)CC1)c1nc(-c2ccc(Cl)cc2)cs1 | 1.49 µM | 6.79 µM
33 | CCCOc1cc2ccccc2cc1C(=O)Nc1nc(N)c2c(ccc3nccc32)[nH]1 | 0.0542 µM | 0.516 µM
34 | CCN(Cc1ccc(F)cc1)c1cc(Cl)c(CO)c(Cl)c1 | 1.89 µM | 6.34 µM
35 | COc1cc(/C(C#N)=C/c2nc3c(N4CCOCC4)nc(Cl)nc3n2C)cc(OC)c1OC | < 0.0131 µM | –
36 | Nc1ccc(C2=NNC(=O)Cc3cc4c(cc32)OCCO4)cc1Cl | 1.58 µM | 15.9 µM
37 | COc1cc(-c2ccc3cc(OC)c(OC)c(OC)c3c2)cc(OC)c1OC | 3.3 µM | > 100 µM
38 | O=C1c2cc3c(cc2-c2c1c1ccc(F)cc1c(=O)n2C[C@H](O)[C@@H](O)[C@H](O)CO)OCO3 | 0.0274 µM | 0.0759 µM
39 | O=C1NC(=NC(CO)Cc2ccccc2)S/C1=C\c1ccc2ncccc2c1 (centres undefined) | 7.07 µM and 2.14 µM | > 25 µM and 13.7 µM
40 | COc1cccc(C(=O)NC(c2ccc(C)cc2)c2cc(Cl)c3cccnc3c2O)c1 (centres undefined) | 0.397 µM | 2.72 µM
41 | C/C=C/CC(C)C(O)[C@H](NC(=O)[C@@H]1CCCN1C(=O)C(C)(C)NC(=O)CCCCCCCCC)C(=O)N[C@@](C)(CC)C(=O)N[C@@H](CCC(N)=O)C(=O)N[C@H](CCC(N)=O)C(=O)NC(C)(C)C(=O)NC(C)(C)C(=O)N[C@@H](CCC(N)=O)C(=O)N[C@H](CC(C)C)C(=O)N[C@H](CO)CC(C)C (stereo partly drawn) (Decanoyl-[Aib]P[X11][Iva]Q[dQ][Aib][Aib]Q[dL][Leu(ol)]) | 1.79 µM | 3.42 µM
42 | COCCOc1ccc(-c2nc3ccc(-c4nc5ccc(N6CCN(C)CC6)cc5[nH]4)cc3[nH]2)cc1 | 1.42 µM | 4.16 µM
43 | COc1cccc(-c2nc(-c3ccc(NC(=O)OC(C)C)cc3)[nH]c2-c2ccnc(Br)c2)c1 | 2.03 µM | 6.5 µM
